The text below walks through data of ChEMBL document CHEMBL5465560, “Selectivity Literature for EUbOPEN Chemogenomic Library” (2024).

One may read the IC50 as the point on the concentration scale where inhibition reaches its midpoint. Low readings indicate inhibition by little substance, high ones a need for much substance.

In experiment [1] the target is T1, cGMP-dependent protein kinase 1 (Homo sapiens) (UniProt Q13976).
T1 sequence (whole entry): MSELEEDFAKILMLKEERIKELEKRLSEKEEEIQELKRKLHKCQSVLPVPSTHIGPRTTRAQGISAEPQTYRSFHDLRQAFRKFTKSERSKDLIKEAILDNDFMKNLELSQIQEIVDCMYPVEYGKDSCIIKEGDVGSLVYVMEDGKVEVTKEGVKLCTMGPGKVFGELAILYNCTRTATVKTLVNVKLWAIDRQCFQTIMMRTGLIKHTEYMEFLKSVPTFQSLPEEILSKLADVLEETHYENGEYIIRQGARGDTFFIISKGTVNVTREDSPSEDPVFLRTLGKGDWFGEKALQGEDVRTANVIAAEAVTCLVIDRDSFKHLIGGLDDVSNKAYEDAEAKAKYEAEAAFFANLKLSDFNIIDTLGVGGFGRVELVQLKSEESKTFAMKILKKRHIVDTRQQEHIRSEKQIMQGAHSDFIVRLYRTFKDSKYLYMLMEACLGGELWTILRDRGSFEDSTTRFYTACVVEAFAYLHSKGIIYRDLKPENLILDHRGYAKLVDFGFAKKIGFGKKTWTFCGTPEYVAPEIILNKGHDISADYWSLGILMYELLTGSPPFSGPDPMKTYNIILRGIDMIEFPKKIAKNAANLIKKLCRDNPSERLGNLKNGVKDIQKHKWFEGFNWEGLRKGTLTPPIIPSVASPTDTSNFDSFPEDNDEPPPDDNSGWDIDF
The experiment in a line: Selectivity interaction (Kinase panel (Z-LYTE Assay)) EUB0001632a PRKG1. Conditions: at 10 µM.

In experiment [2] the target is Eukaryotic translation initiation factor 2-alpha kinase 1 (Homo sapiens) (UniProt Q9BQI3). The experiment in a line: Selectivity interaction (KinomeScan (DiscoverX)) EUB0000607a EIF2AK1. Conditions: at 10 µM.
Sequence of Eukaryotic translation initiation factor 2-alpha kinase 1 (Homo sapiens) (Q9BQI3 whole entry): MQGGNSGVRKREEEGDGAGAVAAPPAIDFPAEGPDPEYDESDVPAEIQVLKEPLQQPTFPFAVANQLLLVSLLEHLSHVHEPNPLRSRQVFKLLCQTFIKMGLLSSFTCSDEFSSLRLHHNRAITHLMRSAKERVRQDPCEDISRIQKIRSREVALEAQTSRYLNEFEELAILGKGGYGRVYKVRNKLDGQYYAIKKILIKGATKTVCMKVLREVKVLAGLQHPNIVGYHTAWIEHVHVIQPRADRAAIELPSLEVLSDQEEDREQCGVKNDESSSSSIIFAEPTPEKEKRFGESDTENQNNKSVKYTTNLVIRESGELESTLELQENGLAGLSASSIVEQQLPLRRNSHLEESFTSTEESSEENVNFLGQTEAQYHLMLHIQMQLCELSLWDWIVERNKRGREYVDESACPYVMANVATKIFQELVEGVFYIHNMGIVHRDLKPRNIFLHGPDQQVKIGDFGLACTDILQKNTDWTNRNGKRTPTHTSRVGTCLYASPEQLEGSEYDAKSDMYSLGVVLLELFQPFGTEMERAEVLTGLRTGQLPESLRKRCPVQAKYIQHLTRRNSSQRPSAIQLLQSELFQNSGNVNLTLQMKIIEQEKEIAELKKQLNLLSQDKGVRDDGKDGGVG
Experiment [3] addresses TRAF2 and NCK-interacting protein kinase (Homo sapiens) (UniProt Q9UKE5). The experiment in a line: Selectivity interaction (KinomeScan (DiscoverX)) EUB0000607a TNIK. Conditions: at 10 µM.
Experiment [4] addresses T2, N-lysine methyltransferase KMT5A (Homo sapiens) (UniProt Q9NQR1).
T2 sequence (whole entry): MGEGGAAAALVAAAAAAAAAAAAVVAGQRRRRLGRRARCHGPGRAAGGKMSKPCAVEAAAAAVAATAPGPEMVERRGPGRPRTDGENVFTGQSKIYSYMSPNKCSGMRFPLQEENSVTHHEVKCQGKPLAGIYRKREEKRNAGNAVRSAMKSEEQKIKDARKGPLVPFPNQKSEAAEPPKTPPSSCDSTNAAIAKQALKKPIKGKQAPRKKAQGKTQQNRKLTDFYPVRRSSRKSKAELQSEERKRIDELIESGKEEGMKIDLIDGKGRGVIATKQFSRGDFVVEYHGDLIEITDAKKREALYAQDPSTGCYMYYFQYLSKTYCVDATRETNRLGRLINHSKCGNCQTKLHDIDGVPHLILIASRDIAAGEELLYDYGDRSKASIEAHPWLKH
Conditions: at 1 µM.

For experiment [5], the target named is T3, Dual specificity protein kinase TTK (Homo sapiens) (UniProt P33981).
T3 sequence (whole entry): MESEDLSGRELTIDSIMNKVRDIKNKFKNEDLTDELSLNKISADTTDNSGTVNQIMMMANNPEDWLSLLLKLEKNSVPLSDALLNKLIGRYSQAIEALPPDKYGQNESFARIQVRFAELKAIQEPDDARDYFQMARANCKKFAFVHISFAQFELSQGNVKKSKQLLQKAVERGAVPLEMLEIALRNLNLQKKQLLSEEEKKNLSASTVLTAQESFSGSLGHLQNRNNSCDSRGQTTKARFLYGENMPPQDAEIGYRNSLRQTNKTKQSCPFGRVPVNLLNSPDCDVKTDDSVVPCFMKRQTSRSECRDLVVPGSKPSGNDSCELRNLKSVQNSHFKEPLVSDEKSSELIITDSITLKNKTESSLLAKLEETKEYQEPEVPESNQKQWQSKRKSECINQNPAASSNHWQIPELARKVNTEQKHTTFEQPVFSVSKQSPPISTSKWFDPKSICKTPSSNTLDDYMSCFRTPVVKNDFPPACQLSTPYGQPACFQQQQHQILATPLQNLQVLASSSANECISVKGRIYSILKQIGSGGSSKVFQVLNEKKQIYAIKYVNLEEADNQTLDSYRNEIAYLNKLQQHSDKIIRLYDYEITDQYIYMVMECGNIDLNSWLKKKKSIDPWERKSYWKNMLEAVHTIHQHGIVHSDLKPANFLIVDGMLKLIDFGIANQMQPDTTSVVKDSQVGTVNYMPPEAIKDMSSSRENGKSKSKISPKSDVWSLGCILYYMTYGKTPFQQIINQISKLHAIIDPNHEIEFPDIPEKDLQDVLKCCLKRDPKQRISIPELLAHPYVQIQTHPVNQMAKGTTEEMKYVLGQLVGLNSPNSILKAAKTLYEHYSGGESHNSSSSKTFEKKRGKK
The experiment in a line: Selectivity interaction (KinomeScan (DiscoverX)) EUB0000229b TTK. Conditions: at 10 µM.

Experiment [6] has as its target Dual specificity protein kinase CLK3 (Homo sapiens, UniProt P49761). The experiment in a line: Selectivity interaction (KinomeScan (DiscoverX)) EUB0000655a CLK3. Conditions: at 10 µM.
For experiment [7], the target named is NUAK family SNF1-like kinase 1 (Homo sapiens, UniProt O60285). The experiment in a line: Selectivity interaction (Enzymatic assay) EUB0001199aCl NUAK1.
Sequence of NUAK family SNF1-like kinase 1 (O60285 whole entry): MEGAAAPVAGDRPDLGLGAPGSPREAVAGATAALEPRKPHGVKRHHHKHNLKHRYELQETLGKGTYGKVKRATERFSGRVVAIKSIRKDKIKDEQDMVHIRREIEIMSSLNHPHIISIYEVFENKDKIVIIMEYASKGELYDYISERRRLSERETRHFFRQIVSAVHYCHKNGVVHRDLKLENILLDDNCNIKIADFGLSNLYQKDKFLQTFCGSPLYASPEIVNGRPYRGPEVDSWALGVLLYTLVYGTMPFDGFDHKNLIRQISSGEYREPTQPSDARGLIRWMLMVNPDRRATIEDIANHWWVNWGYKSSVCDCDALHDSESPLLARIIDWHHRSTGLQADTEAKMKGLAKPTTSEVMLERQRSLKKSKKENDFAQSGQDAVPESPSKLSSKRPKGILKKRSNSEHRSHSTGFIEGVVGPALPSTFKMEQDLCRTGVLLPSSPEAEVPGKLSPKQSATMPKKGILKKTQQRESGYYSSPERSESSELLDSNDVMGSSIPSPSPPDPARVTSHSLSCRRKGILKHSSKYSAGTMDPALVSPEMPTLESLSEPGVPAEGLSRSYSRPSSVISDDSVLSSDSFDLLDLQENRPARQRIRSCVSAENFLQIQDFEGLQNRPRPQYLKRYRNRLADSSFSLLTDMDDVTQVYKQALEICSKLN
The target of experiment [8] is Serine/threonine-protein kinase PAK 1 (Homo sapiens) (UniProt Q13153). Put plainly: Selectivity interaction (KinomeScan (DiscoverX)) EUB0001049a PAK1. Particulars: at 1 µM.
Sequence of Serine/threonine-protein kinase PAK 1 (Homo sapiens) (Q13153 whole entry): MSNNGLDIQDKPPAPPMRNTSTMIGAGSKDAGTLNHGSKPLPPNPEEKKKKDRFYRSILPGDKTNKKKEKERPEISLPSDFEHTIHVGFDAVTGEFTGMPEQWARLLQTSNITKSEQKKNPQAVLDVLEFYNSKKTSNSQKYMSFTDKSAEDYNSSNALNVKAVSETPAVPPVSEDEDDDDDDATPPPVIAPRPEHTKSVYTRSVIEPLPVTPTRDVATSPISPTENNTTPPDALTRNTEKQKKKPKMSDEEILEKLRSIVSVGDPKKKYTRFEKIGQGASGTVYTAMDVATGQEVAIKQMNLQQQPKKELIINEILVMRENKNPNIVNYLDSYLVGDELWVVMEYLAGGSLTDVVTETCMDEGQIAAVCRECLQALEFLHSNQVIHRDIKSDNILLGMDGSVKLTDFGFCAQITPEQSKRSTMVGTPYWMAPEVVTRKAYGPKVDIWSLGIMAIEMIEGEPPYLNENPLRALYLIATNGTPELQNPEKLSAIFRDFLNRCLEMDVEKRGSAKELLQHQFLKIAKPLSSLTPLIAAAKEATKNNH
The target of experiment [9] is Serine/threonine-protein kinase SIK1 (Homo sapiens) (UniProt P57059). The experiment in a line: Selectivity interaction (KinomeScan (DiscoverX)) EUB0001049a SIK1. Particulars: at 1 µM.
For experiment [10], the target named is Protein-tyrosine kinase 2-beta (Homo sapiens) (UniProt Q14289). Put plainly: Selectivity interaction (KinomeScan (DiscoverX)) EUB0000045b PTK2B.
Sequence of Protein-tyrosine kinase 2-beta (Homo sapiens) (Q14289 whole entry, looked up): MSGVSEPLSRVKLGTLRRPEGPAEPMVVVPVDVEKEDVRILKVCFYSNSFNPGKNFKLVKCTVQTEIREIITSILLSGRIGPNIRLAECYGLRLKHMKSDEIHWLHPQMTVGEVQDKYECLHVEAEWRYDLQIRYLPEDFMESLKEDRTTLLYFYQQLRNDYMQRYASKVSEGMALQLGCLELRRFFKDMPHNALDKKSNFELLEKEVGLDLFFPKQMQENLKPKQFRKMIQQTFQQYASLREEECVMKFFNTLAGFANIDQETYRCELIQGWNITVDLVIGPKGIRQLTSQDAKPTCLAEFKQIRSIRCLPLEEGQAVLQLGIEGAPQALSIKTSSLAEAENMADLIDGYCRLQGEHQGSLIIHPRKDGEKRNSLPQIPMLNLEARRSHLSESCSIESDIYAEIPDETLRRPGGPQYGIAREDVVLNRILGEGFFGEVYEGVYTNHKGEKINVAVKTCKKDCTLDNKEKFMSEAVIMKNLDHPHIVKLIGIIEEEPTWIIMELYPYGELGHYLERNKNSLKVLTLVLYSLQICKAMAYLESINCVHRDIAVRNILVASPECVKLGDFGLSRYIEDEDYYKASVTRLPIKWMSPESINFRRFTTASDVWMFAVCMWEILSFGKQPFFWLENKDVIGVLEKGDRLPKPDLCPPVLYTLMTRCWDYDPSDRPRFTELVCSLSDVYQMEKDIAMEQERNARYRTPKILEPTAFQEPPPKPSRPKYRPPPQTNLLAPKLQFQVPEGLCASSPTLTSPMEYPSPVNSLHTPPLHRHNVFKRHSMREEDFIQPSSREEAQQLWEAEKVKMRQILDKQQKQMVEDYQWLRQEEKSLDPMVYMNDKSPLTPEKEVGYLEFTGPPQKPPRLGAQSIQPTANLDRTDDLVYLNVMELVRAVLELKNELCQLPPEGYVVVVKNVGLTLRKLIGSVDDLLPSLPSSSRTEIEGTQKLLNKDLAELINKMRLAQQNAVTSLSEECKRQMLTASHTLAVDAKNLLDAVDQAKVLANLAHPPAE

Each structure is given as a SMILES string.

Sequence of Dual specificity protein kinase CLK3 (P49761 whole entry, looked up): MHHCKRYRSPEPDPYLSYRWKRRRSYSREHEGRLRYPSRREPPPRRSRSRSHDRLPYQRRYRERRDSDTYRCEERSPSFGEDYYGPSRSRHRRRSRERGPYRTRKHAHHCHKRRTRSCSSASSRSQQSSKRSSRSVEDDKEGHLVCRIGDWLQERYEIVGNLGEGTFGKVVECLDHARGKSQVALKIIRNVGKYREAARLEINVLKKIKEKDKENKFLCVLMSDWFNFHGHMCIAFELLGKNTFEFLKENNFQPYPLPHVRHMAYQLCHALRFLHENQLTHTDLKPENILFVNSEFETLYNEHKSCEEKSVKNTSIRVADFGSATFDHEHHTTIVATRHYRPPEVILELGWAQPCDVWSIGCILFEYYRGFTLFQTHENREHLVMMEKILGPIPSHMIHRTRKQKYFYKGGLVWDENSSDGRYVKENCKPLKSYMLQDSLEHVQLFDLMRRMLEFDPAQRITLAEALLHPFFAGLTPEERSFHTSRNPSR
Sequence of TRAF2 and NCK-interacting protein kinase (Homo sapiens) (Q9UKE5 whole entry, looked up): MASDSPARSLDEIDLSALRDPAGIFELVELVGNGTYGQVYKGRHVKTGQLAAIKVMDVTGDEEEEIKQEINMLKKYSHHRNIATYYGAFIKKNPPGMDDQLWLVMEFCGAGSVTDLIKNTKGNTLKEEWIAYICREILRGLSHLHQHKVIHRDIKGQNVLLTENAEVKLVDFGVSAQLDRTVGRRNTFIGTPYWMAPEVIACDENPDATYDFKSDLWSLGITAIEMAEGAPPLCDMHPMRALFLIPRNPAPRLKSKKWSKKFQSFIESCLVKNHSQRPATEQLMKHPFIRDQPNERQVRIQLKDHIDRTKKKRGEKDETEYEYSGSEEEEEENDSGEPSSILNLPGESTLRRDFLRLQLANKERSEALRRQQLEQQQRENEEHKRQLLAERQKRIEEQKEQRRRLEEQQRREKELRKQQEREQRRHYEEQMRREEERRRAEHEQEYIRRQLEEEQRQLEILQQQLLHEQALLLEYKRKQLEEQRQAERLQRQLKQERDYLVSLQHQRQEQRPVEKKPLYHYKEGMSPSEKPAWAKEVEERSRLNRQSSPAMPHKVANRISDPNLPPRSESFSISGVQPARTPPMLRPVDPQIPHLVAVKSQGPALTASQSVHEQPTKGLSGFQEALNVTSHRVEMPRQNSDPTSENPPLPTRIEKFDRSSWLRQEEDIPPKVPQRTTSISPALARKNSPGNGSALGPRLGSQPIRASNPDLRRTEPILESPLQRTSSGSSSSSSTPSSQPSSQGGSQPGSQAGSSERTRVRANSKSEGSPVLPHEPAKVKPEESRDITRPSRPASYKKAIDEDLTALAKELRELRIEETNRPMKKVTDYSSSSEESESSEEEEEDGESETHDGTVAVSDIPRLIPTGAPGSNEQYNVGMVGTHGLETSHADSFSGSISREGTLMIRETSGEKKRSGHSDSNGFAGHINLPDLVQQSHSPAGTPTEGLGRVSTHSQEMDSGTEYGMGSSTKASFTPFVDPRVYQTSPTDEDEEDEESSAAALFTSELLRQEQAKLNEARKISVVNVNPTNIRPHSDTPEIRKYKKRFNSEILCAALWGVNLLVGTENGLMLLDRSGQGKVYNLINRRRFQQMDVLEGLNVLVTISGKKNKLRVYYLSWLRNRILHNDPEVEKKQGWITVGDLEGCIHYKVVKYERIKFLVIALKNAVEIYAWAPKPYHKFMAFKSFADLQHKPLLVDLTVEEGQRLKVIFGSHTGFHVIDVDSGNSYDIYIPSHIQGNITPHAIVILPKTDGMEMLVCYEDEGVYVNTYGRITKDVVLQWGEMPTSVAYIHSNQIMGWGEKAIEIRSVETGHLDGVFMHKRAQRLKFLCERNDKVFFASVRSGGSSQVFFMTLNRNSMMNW

On to `Cn1cc(-n2cnc3c(NCc4nc5cc(Cl)c(Cl)cc5[nH]4)nc(N4CCOCC4)nc32)cn1`, for which the % of control in experiment [1] is -8.04%.
For the compound `CNC(=O)Nc1ccc(-c2nc(N3CC4CCC(C3)O4)c3cnn(C4CCC5(CC4)OCCO5)c3n2)cc1`, the % of control in experiment [2] and in experiment [3] was 100% in each case.
`CNCCN1CCC(c2cc(CN(C)C(=O)c3cccc(Oc4ccccc4)c3)ccn2)CC1`: the % activity in experiment [4] is greater than 90%.
On to `COc1cc(N(C)c2ccnc3ccc(C(F)(F)F)cc23)cc(OC)c1OC`, for which, in experiment [5], the % binding was determined as 60%.
With `CN(C)CCOc1ccc(-c2nc(-c3ccncc3)c(-c3ccc4c(c3)CC/C4=N\O)[nH]2)cc1`, in experiment [6], the % of control amounted to 98%.
As to `CN1Cc2nccc(-c3cn(C)nc3-c3ccc(F)cc3)c2C1=O`, the IC50 in [7] was 10.2 µM.
`COc1cc(Nc2nc(C)cc(-c3cnn4nc(OC)ccc34)n2)cc(C(F)(F)F)c1`: the % of control stood at 86% in experiment [8] and 93% in [9].
As to `C=CC(=O)Nc1cc(-n2c(=O)ccc3cnc4ccc(-c5ccc(NS(C)(=O)=O)cc5)cc4c32)ccc1C`, the results for the % of control in experiment [10] (at 1 µM) and in experiment [10] (at 10 µM) were 100% and 92%, respectively.
